Results taken from the METLIN SMRT retention time set (Domingo-Almenara et al. 2019).

Test: gradient 5% acetonitrile 3 min, to 50% in 2 min, to 85% in 15 min, held 3 min, 100 µL/min
Details: column: Zorbax Extend-C18 2.1 x 50 mm; eluents: water / acetonitrile, 0.1% formic acid
Outline: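 In both positive and negative ionization mode, a quadrupole time-of-flight mass spectrometer coupled to HPLC analyzed pure standards run in mixtures of ~100 molecules. The Zorbax Extend-C18 column (2.1 × 50 mm, 1.8 μm) was operated at 100 μL/min with water and acetonitrile, each containing 0.1% formic acid. The dead volume was 40 μL and the dwell volume 900 μL. Retention time came from adduct peaks that were computationally picked and individually inspected by hand.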

| RP-LC retention time | SMILES |
| --- | --- |
| 998 s | CCN1C(=O)COc2ccc(-c3noc(-c4cccc5[nH]ccc45)n3)cc21 |
| 615 s | O=C(NCc1ccccn1)C1CCN(c2cnn(Cc3ccccc3)c(=O)c2)CC1 |
| 1070 s | CCc1nc(-c2csc(S(=O)(=O)N3CCC(C(=O)NC4CCCCCCC4)CC3)c2)no1 |
| 620 s | CN(C)CCNC(=O)c1cc(-c2ccccc2)nc2ccccc12 |
| 931 s | Cc1ccc(NC(=O)CSc2nnc3c4cc(-c5ccc(F)cc5)nn4ccn23)c(C)c1 |
| 621 s | CC(C)OCCCNC(=O)C1Cn2cccc2C(=O)N1C (centres undefined) |
| 901 s | CC(C)N1C(=O)c2cccnc2Sc2cc(NC(=O)c3cccc(F)c3)ccc21 |
| 900 s | CC1CCN(C(=O)C2c3ccccc3CCN2CC(=O)NCc2ccccc2)CC1 (centres undefined) |
| 1200 s | CC(C)(C)c1cc(C(=O)Nc2ccc(C#N)cc2)nc2ccnn12 |
| 716 s | O=C(c1cc(O)c(O)c([N+](=O)[O-])c1)c1ccccc1F |
| 715 s | CCOC(=O)c1cn(CC(=O)Nc2ccc3c(c2)OCO3)c2nc(C)ccc2c1=O |
| 834 s | COCCN1C(=O)c2cc(-c3ccc(OC)cc3)nn2CC1(C)C(=O)NCc1ccccc1 (centres undefined) |
| 668 s | CCOc1ccc(Nc2c(C(=O)N3CCCCC3C)cnc3nc(C)ccc23)cc1 (centres undefined) |
| 1140 s | COc1ccc(OCC(=O)Nc2nc(-c3ccc(Cl)cc3)cs2)cc1 |
| 712 s | CCn1ccc(C(=O)Nc2nnc(CSc3ccccc3)o2)n1 |
| 741 s | COc1ccc(-c2noc(-c3cccn(CC(=O)Nc4ccc5c(c4)OCO5)c3=O)n2)cc1OC |

| RP-LC retention time | SMILES |
| --- | --- |
| 940 s | CC1(C(=O)NC2CCCCC2)CN(S(=O)(=O)c2ccccc2)CC(=O)N1c1cccc(F)c1 (centres undefined) |
| 611 s | COc1nccnc1N1CCC(NC(=O)Cc2ccsc2)C1 (centres undefined) |
| 705 s | Cc1ccccc1S(=O)(=O)NC1CCN(c2ccc(=O)n(C)n2)C1 (centres undefined) |
| 783 s | Cc1ccc(Cl)cc1NC(=O)N1CCc2nc(-c3ccccc3)ncc2C1 |
| 630 s | C=CC(=O)Nc1cc2c(Nc3ccc(F)c(Cl)c3)ncnc2cc1OCCCN1CCOCC1 |
| 515 s | Cn1c(SCCC(=O)O)nnc1-c1cccnc1 |
| 994 s | CC(C)(C)NC(=O)Cc1cccn1-c1ccc(Cl)cc1 |
| 819 s | Cc1ccccc1-c1noc(Cn2c(=O)n(Cc3cccc(Cl)c3)c(=O)c3sccc32)n1 |
| 962 s | CCCNC(=O)Cn1cc(C(=O)Nc2ccc(Cl)cc2)c(=O)c2ccc(C)nc21 |
| 658 s | COCCNC(=O)Cn1ccc2c(SCc3ccc(C)cc3)nccc21 |
| 861 s | COc1cccc(S(=O)(=O)N2CCC(N3CCN(Cc4ccc(C)cc4)C(=O)C3=O)CC2)c1 |
| 808 s | COc1ccc(NC(=O)Cn2ncc3c(c2=O)N(CC2CC2)C(=O)CS3)cc1Cl |
| 638 s | COc1ncc(C(=O)NCc2ccc(OC)c(OC)c2)cn1 |
| 1030 s | COc1cc2c(cc1OC)[N+]([O-])=C(c1ccccc1)C2=O |
| 928 s | CCS(=O)(=O)c1nc2ccc(NS(=O)(=O)c3cccc(Cl)c3)cc2s1 |

Second part, the molecule before the results:

| SMILES | RP-LC retention time |
| --- | --- |
| O=C(NCc1ccc(F)cc1)C1CCCN(c2nccnc2Sc2ccccc2)C1 (centres undefined) | 1020 s |
| Cc1cc(N2CCN(C)CC2)nc2ccc(NC(=O)Nc3ccc(Cl)cc3)cc12 | 610 s |
| Cc1ccc(-c2ccc(N3CCCC(C(=O)NCCC4=CCCCC4)C3)nn2)cc1C (centres undefined) | 888 s |
| CN1C(=O)c2cc(C(=O)N3CCN(c4ccccc4)CC3)nn2CC1(C)C(=O)NC1CCCCC1 (centres undefined) | 803 s |
| CCCCCCC(C)OC(=O)c1ccccc1C(=O)O (centres undefined) | 1130 s |
| CN(C)c1cccc(-c2nc(-c3ccc4c(c3)nnn4CCC(=O)N3CCCC3)no2)c1 | 990 s |
| CSc1ccc(CNC(=O)CSc2cc(N3CCCCC3)ncn2)cc1 | 767 s |
| N#CCCSc1ccccc1NC(=O)c1ccc(C(=O)c2ccccc2)cc1 | 924 s |
| CC1(c2ccccc2)CC(C)(C)N(C(=O)CN2CCOCC2)c2ccccc21 (centres undefined) | 744 s |
| COc1cccc(C2CC(c3ccc(Cl)cc3)=NC3(CCN(C(C)=O)CC3)N2)c1O (centres undefined) | 686 s |
| CCn1cnc(S(=O)(=O)N2CCC(C(=O)Nc3ccc(C)c(N(C)C)c3)CC2)c1 | 588 s |
| CC(C)c1ccc(NC(=O)N2CCN(c3ccc4nncn4n3)CC2)cc1 | 672 s |
| CCCN(C(=O)CC(=O)OCC)c1nc(-c2ccc(C)cc2)cs1 | 1250 s |
| CCOc1nccnc1NC1CCN(C(=O)c2ccn(CC)n2)CC1 | 669 s |
| CCc1ccc(NS(=O)(=O)c2cc3c(s2)CCN(C(=O)C2CC2)C3)cc1 | 864 s |
| CC1CCN(S(=O)(=O)c2ccc(-c3nnc(C(=O)NCCc4ccc(Cl)cc4)o3)cc2)CC1 | 1160 s |
| Cc1noc([C@@H]2CN(C(=O)c3ccoc3C)C[C@H]2CO)n1 | 610 s |
| O=C(C1CCCO1)N1CCC(CCOc2cccc(F)c2)CC1 (centres undefined) | 842 s |
| Cc1ccc(NC(=O)C2CCCN(S(=O)(=O)c3c[nH]c(C(=O)N4CCCC4)c3)C2)nc1 (centres undefined) | 824 s |
| CCc1ccc(CNC(=O)Cn2c(C)cc(-c3nnc(C4CCC4)o3)c2C)cc1 | 965 s |

| SMILES | RP-LC retention time |
| --- | --- |
| CCC1Oc2ccc(S(=O)(=O)N3CCC(C(=O)N4CCOCC4)CC3)cc2NC1=O (centres undefined) | 691 s |
| COc1cccc(S(=O)(=O)N2C[C@@H]3C[C@H]2C[C@@H]3NC(=O)c2cccs2)c1 | 854 s |
| Cn1cnnc1SCCNC(=O)Cc1noc2ccccc12 | 591 s |
| CSc1cccc(NC(=O)Cn2nc(-n3cccc3)c3c(C)cc(C)nc32)c1 | 1080 s |
| CSc1c(N(C)C)c(=O)c1=S | 756 s |
| COC(=O)c1ccccc1NC(=O)CSc1nc(C)cc(N2CCOCC2)n1 | 603 s |
| Cc1ccc(C)c(NC(=O)c2c(C)sc3ncnc(N4CCCC(C)C4)c23)c1 (centres undefined) | 1240 s |
| Cc1cccc(N2CCN(Cc3nc(-c4ccc(N5CCSCC5)nc4)no3)CC2)c1 | 1000 s |
| Cc1cccnc1NC(=O)C1CCN(S(=O)(=O)c2ccc3c(c2)sc(=O)n3C(C)C)CC1 | 844 s |
| CCc1ccccc1S(=O)(=O)N1CCC(N2CCN(Cc3ccccc3)C(=O)C2=O)CC1 | 864 s |
| Cc1ccc(C(=O)N2CCCCC2c2nncn2CC2CC2)cn1 (centres undefined) | 575 s |
| Cc1ccccc1Nc1c(-c2cccc(Br)c2)nc2c(C)cccn12 | 849 s |
| COc1cc(C2C(=O)N(C3CCCCC3)CC(=O)N2Cc2ccco2)ccc1OC(C)C (centres undefined) | 964 s |
| O=C(NCc1ccccc1)c1nnc(-c2ccc(S(=O)(=O)N3CCOCC3)cc2)o1 | 816 s |
| CCC1Oc2ccc(S(=O)(=O)N3CCC(C(=O)N(C)c4ccc(C)cc4)CC3)cc2NC1=O (centres undefined) | 837 s |
| CC(=O)c1cccc(C(=O)N2CCC3(CC2)NC(=O)N(Cc2ccccc2)C3=O)c1 | 733 s |
| CCOC(=O)c1cc(S(=O)(=O)N2CCCC2C(=O)N(CC)c2cccc(C)c2)cn1C (centres undefined) | 943 s |
| CCc1ccc2nc(C)cc(C(=O)NC3CC3)c2c1 | 605 s |
| CCCCC(=O)Nc1ccc2nc(N3CCN(CC)CC3)cc(C(=O)O)c2c1 | 571 s |
| CC(C)Cn1c(-c2ccccc2)nc2ccccc21 | 675 s |

| SMILES | RP-LC retention time |
| --- | --- |
| Cc1cc(C)cc(NC(=O)C2CCN(c3c(C(=O)N4CCC(C)CC4)cnc4snc(C)c34)CC2)c1 | 1100 s |
| CCOc1ccc(-c2nc(-c3ccc4c(c3)N(CC)C(=O)CO4)no2)cc1 | 1240 s |
| CC(C)CNC(=O)Cc1nnc(-c2ccccc2)o1 | 718 s |
| O=C(CCc1csc(NC(=O)c2ccc(=O)[nH]c2)n1)NCc1ccccn1 | 542 s |
| CC(=O)N1CCCc2cc(S(=O)(=O)CCC(=O)N3CCN(c4cc(C)ccc4C)CC3)ccc21 | 936 s |
| Cc1ccc(Cl)cc1NC(=O)N1C[C@@H](F)C[C@H]1C(=O)N1CCCCC1 | 746 s |
| O=C(NCCc1cccs1)C1CCCN(c2nc3ccsc3c(=O)n2Cc2ccc(F)cc2)C1 (centres undefined) | 936 s |
| CCOCC(=O)N1CCCN(C2=NS(=O)(=O)C(c3ccc(C)c(C)c3)=C2C)CC1 | 795 s |
| CCC1CCCCN1C(=O)c1cnc2nc(C)ccc2c1Nc1cccc(C)c1C (centres undefined) | 720 s |
| OC1(c2ccccn2)CCOC2(CCN(Cc3cccc(F)c3F)CC2)C1 (centres undefined) | 571 s |
| Cc1cccc(CN2C(=O)CN(S(=O)(=O)c3ccccc3)CC2(C)C(=O)NCCC(C)C)c1 (centres undefined) | 1030 s |
| Cc1ccc2c(C(=O)NCC(C)C)cc(NC(=O)C3CCC3)cc2n1 | 613 s |
| O=C(CC(F)(F)F)N1CCCC(CCc2nnc(-c3cnccn3)o2)C1 (centres undefined) | 717 s |
| CN(C)C(CNS(=O)(=O)c1cc(Cl)ccc1Cl)c1cccs1 (centres undefined) | 591 s |
| CCc1nc(OCC(=O)NCc2ccc(OC)cc2)c2ccccc2n1 | 746 s |
| Cc1ccccc1Nc1c(-c2ccccc2)nc2ccc(Br)cn12 | 799 s |
| Cc1cccn2cc(C(=O)NCc3cc(F)ccc3F)nc12 | 655 s |
| O=C(Cn1c(=O)oc2ccccc21)N1CC(n2cc(COCc3ccccc3)nn2)C1 | 773 s |
